Experimental findings from publication PMC4005666 (2014) are described below.

Experiment [1] relates to Natural E. coli TPP riboswitch (RNA, riboswitch) GGACUCGGGGUGCCCUUCUGCGUGAAGGCUGAGAAAUACCCGUAUCACCUGAUCUGGAUAAUGCCAGCGUAGGGAAGUUC
As to the kind of experiment: ITC. The note with it: 100 mM KCl, 10 mM MgCl2; 40 mM Hepes pH 7.5, 303.15 K.

In experiment [2] the test system is A1bG (RNA, riboswitch) GGACUCGGGGUGCCCUUCUGCGUGAAGGCUGAGAAAUACCCGUGUCACCUGAUCUGGAUAAUGCCAGCGUAGGGAAGUUC
As to the kind of experiment: ITC. Particulars: 100 mM KCl, 10 mM MgCl2; 40 mM Hepes pH 7.5, 303.15 K.

Experiment [3] relates to ΔUC (RNA, riboswitch) GGACUCGGGGUGCCCUUCUGCGUGAAGGCUGAGAAAUACCCGUAACCUGAUCUGGAUAAUGCCAGCGUAGGGAAGUUC
Put plainly: ITC. The note with it: 100 mM KCl, 10 mM MgCl2; 40 mM Hepes pH 7.5, 303.15 K.

Experiment [4] concerns A1nU (RNA, riboswitch) GGACUCGGGGUGCCCUUCUGCGUGAAGGCUGAGAAAUACCCGUAUCACCUGAUCUGGAUAAUGCCAGCGUAGGGUAGUUC
Put plainly: ITC. The note with it: 100 mM KCl, 10 mM MgCl2; 40 mM Hepes pH 7.5, 303.15 K.

Experiment [5] concerns A2bC (RNA, riboswitch) GGACUCGGGGUGCCCUUCUGCGUGAAGGCUGAGAAAUACCCGUAUCCCCUGAUCUGGAUAAUGCCAGCGUAGGGAAGUUC
Put plainly: ITC. The note with it: 100 mM KCl, 10 mM MgCl2; 40 mM Hepes pH 7.5, 303.15 K.

Experiment [6] relates to A2bU (RNA, riboswitch) GGACUCGGGGUGCCCUUCUGCGUGAAGGCUGAGAAAUACCCGUAUCUCCUGAUCUGGAUAAUGCCAGCGUAGGGAAGUUC
Put plainly: ITC. Particulars: 100 mM KCl, 10 mM MgCl2; 40 mM Hepes pH 7.5, 303.15 K.

The test system of experiment [7] is A1nC (RNA, riboswitch) GGACUCGGGGUGCCCUUCUGCGUGAAGGCUGAGAAAUACCCGUAUCACCUGAUCUGGAUAAUGCCAGCGUAGGGCAGUUC
As to the kind of experiment: ITC. Particulars: 100 mM KCl, 10 mM MgCl2; 40 mM Hepes pH 7.5, 303.15 K; 150 µM TPP titrated into 15 µM RNA.

In experiment [8] the test system is Natural E. coli TPP riboswitch (RNA, riboswitch) GGACUCGGGGUGCCCUUCUGCGUGAAGGCUGAGAAAUACCCGUAUCACCUGAUCUGGAUAAUGCCAGCGUAGGGAAGUUC
Put plainly: native gel electrophoresis (mobility increase). The note with it: 1 mM Mg2+; 25 mM Tris, 192 mM glycine pH 8.3; 100 µM TPP.

The test system of experiment [9] is A1nC (RNA, riboswitch) GGACUCGGGGUGCCCUUCUGCGUGAAGGCUGAGAAAUACCCGUAUCACCUGAUCUGGAUAAUGCCAGCGUAGGGCAGUUC
As to the kind of experiment: native gel electrophoresis (mobility increase). Particulars: 1 mM Mg2+; 25 mM Tris, 192 mM glycine pH 8.3; 100 µM TPP.

As usually defined, the Kd is the constant that tells how readily two partners part at equilibrium. A lower Kd goes with higher affinity. On to `Cc1ncc(C[n+]2csc(CCOP(=O)(O)OP(=O)(O)O)c2C)c(N)n1`, for which the Kd turned out to be 230 ± 20 nM in experiment [1]; 2440 ± 230 nM in [2]; 280 ± 40 nM in [3]; 4070 ± 730 nM in experiment [4]; 850 ± 110 nM in experiment [5]; 550 ± 40 nM in experiment [6]. Further, the binding entry in experiment [7] is “no”; in experiment [8], “yes”; in [9], “no”.
